Experimental data from PubChem BioAssay AID248 (DTP/NCI, 2004).
Toxic doses and inconclusive results are not listed. Cut-off read from the data, not from the text of the source: active = T/C of 150% or more; inactive = T/C below 125%.

Test system: L1210 leukemia ip in BDF1 mice, survival T/C
Experiment: NCI In Vivo Anticancer Drug Screen. Data for tumor model L1210 Leukemia (intraperitoneal) in B6D2F1 (BDF1) mice
Settings: endpoint: mean survival time, higher = longer survival
Summary of the method: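 Transplanted-tumor mice were given test agent; controls received vehicle only. Survival readings from the two groups were divided (treated over control).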

[1] = dose: 100.0 mg/kg/injection, schedule: Q04DX003 (ip), vehicle: saline
[2] = dose: 200.0 mg/kg/injection, schedule: Q04DX003 (ip), vehicle: saline
[3] = dose: 400.0 mg/kg/injection, schedule: Q04DX003 (ip), vehicle: saline
[4] = dose: 100.0 mg/kg/injection, schedule: Q01DX009 (ip), vehicle: saline with Tween-80
[5] = dose: 100.0 mg/kg/injection, schedule: Q04DX003 (ip), vehicle: saline with Tween-80
[6] = dose: 200.0 mg/kg/injection, schedule: Q01DX009 (ip), vehicle: saline with Tween-80
[7] = dose: 200.0 mg/kg/injection, schedule: Q04DX003 (ip), vehicle: saline with Tween-80
[8] = dose: 400.0 mg/kg/injection, schedule: Q04DX003 (ip), vehicle: saline with Tween-80
[9] = dose: 50.0 mg/kg/injection, schedule: Q01DX001 (ip), vehicle: Klucel (hydroxypropylcellulose) (HPC)
[10] = dose: 100.0 mg/kg/injection, schedule: Q01DX001 (ip), vehicle: Klucel (hydroxypropylcellulose) (HPC)
[11] = dose: 200.0 mg/kg/injection, schedule: Q01DX001 (ip), vehicle: Klucel (hydroxypropylcellulose) (HPC)
[12] = dose: 100.0 mg/kg/injection, schedule: Q01DX001 (ip), vehicle: saline
[13] = dose: 200.0 mg/kg/injection, schedule: Q01DX001 (ip), vehicle: saline
[14] = dose: 400.0 mg/kg/injection, schedule: Q01DX001 (ip), vehicle: saline

Measured: T/C

ClC1=C(Cl)C(Cl)(Cl)SC1(Cl)Cl
inactive: dose: 3.12 mg/kg/injection, schedule: Q01DX009 (ip), vehicle: acetone 90 % of control | dose: 6.25 mg/kg/injection, schedule: Q01DX009 (ip), vehicle: acetone 101 % of control | dose: 12.5 mg/kg/injection, schedule: Q01DX001 (ip), vehicle: acetone 99 % of control | dose: 12.5 mg/kg/injection, schedule: Q01DX009 (ip), vehicle: acetone 96 % of control | dose: 12.5 mg/kg/injection, schedule: Q04DX003 (ip), vehicle: acetone 92 % of control | dose: 25.0 mg/kg/injection, schedule: Q01DX001 (ip), vehicle: acetone 100 % of control | dose: 50.0 mg/kg/injection, schedule: Q01DX001 (ip), vehicle: acetone 99 % of control

c1ccc(-c2csnn2)cc1
inactive: dose: 200.0 mg/kg/injection, schedule: Q01DX001 (ip), vehicle: carboxymethylcellulose (CMC) 91 % of control | dose: 400.0 mg/kg/injection, schedule: Q01DX001 (ip), vehicle: carboxymethylcellulose (CMC) 115 % of control

Cc1cc(C(=O)O)cc(C)c1NC(=O)N(CCCl)N=O
inactive: dose: 46.0 mg/kg/injection, schedule: Q01DX001 (ip), vehicle: other 91 % of control | dose: 62.0 mg/kg/injection, schedule: Q01DX001 (ip), vehicle: other 90 % of control

NC(=O)CCCN1CCCC1=O
inactive: dose: 100.0 mg/kg/injection, schedule: Q01DX009 (ip), vehicle: saline 100 % of control | [1] 100 % of control | dose: 200.0 mg/kg/injection, schedule: Q01DX009 (ip), vehicle: saline 111 % of control | [2] 101 % of control | dose: 400.0 mg/kg/injection, schedule: Q01DX009 (ip), vehicle: saline 110 % of control | [3] 97 % of control

Cc1nc2c(NC(=O)C(F)(F)F)nn(C)c2nc1C
inactive: [4] 94 % of control | [5] 100 % of control | [6] 92 % of control | [7] 100 % of control | [8] 106 % of control

O=P(OCc1ccccc1)(N(CCCl)CCCl)N1CCCC1 (stereo not given)
inactive: dose: 16.0 mg/kg/injection, schedule: Q01DX Z (ip), vehicle: saline 92 % of control | dose: 32.0 mg/kg/injection, schedule: Q01DX Z (ip), vehicle: saline 90 % of control | dose: 64.0 mg/kg/injection, schedule: Q01DX Z (ip), vehicle: saline 101 % of control | dose: 128.0 mg/kg/injection, schedule: Q01DX Z (ip), vehicle: saline 106 % of control

CS(C)(C)N1C(=O)c2ccccc2C1=O
inactive: dose: 87.5 mg/kg/injection, schedule: Q01DX009 (ip), vehicle: Klucel (hydroxypropylcellulose) (HPC) 98 % of control | dose: 175.0 mg/kg/injection, schedule: Q01DX009 (ip), vehicle: Klucel (hydroxypropylcellulose) (HPC) 96 % of control

CC(C)(C)CC(C)(C)c1ccc(OCCOc2ccc(C(N)=O)cc2[N+](=O)[O-])cc1
inactive: [1] 94 % of control | [2] 105 % of control | [3] 97 % of control

O=c1[nH]cc(Br)c2sccc12
inactive: [5] 100 % of control | [7] 105 % of control

Nc1nc(O)c(NC(=O)Nc2ccccc2)c(=O)[nH]1
inactive: dose: 100.0 mg/kg/injection, schedule: Q04DX003 (ip), vehicle: gum acacia 102 % of control | dose: 200.0 mg/kg/injection, schedule: Q04DX003 (ip), vehicle: gum acacia 100 % of control | dose: 400.0 mg/kg/injection, schedule: Q04DX003 (ip), vehicle: gum acacia 105 % of control

O=S1(=O)CCCCC1
inactive: dose: 75.0 mg/kg/injection, schedule: Q01DX009 (ip), vehicle: other 106 % of control | dose: 100.0 mg/kg/injection, schedule: Q04DX003 (ip), vehicle: saline sonified 95 % of control | dose: 150.0 mg/kg/injection, schedule: Q01DX009 (ip), vehicle: other 101 % of control | dose: 200.0 mg/kg/injection, schedule: Q04DX003 (ip), vehicle: saline sonified 93 % of control | dose: 300.0 mg/kg/injection, schedule: Q01DX009 (ip), vehicle: other 93 % of control | dose: 400.0 mg/kg/injection, schedule: Q04DX003 (ip), vehicle: saline sonified 95 % of control

O=S1(=O)CCNc2ccccc2O1
inactive: [9] 101 % of control | [10] 93 % of control | [11] 97 % of control | dose: 400.0 mg/kg/injection, schedule: Q01DX001 (ip), vehicle: Klucel (hydroxypropylcellulose) (HPC) 95 % of control

O=C(Nc1ncc(S(=O)(=O)c2ccc([N+](=O)[O-])cc2)s1)C(F)(F)F
inactive: [4] 94 % of control | [6] 99 % of control

O=c1c(N=Nc2ccc(Cl)cc2)c(O)n(-c2ccc(Cl)cc2)c(=S)n1-c1ccccc1
inactive: [9] 108 % of control | [10] 94 % of control | [11] 100 % of control

COc1c(NC(=O)c2ccc(Cl)c(Cl)c2)cccc1[N+](=O)[O-]
inactive: [4] 89 % of control | [6] 89 % of control | dose: 400.0 mg/kg/injection, schedule: Q01DX009 (ip), vehicle: saline with Tween-80 89 % of control

COC(=O)C1ON(C(=O)c2ccccc2)C(C)C(O)C1I (stereo not given)
inactive: dose: 100.0 mg/kg/injection, schedule: Q04DX003 (ip), vehicle: Klucel (hydroxypropylcellulose) (HPC) 96 % of control | dose: 200.0 mg/kg/injection, schedule: Q04DX003 (ip), vehicle: Klucel (hydroxypropylcellulose) (HPC) 97 % of control | dose: 400.0 mg/kg/injection, schedule: Q04DX003 (ip), vehicle: Klucel (hydroxypropylcellulose) (HPC) 92 % of control

CCCCOCC1CO1 (stereo not given)
inactive: [5] 92 % of control | [7] 95 % of control | [8] 98 % of control

Cc1nc(N)[nH]c(=O)c1CCCCc1ccccc1
inactive: dose: 50.0 mg/kg/injection, schedule: Q01DX009 (ip), vehicle: Klucel (hydroxypropylcellulose) (HPC) 98 % of control | dose: 100.0 mg/kg/injection, schedule: Q01DX009 (ip), vehicle: Klucel (hydroxypropylcellulose) (HPC) 102 % of control | dose: 200.0 mg/kg/injection, schedule: Q01DX009 (ip), vehicle: Klucel (hydroxypropylcellulose) (HPC) 95 % of control

c1ccc([B-](c2ccccc2)(c2ccccc2)[C+]2CCCCC2)cc1 (tested in a mixture with another compound)
inactive: [12] 105 % of control | [13] 108 % of control | [14] 108 % of control

O=S(=O)(O)Nc1ccc(S(=O)(=O)O)c2ccccc12
inactive: dose: 50.0 mg/kg/injection, schedule: Q01DX001 (ip), vehicle: saline 102 % of control | [12] 93 % of control | [13] 96 % of control | [14] 98 % of control

COC1OC(CO)C2OC(C)(C)OC2C1O (stereo not given)
inactive: dose: 100.0 mg/kg/injection, schedule: Q04DX002 (ip), vehicle: saline 93 % of control | dose: 200.0 mg/kg/injection, schedule: Q04DX002 (ip), vehicle: saline 101 % of control | dose: 400.0 mg/kg/injection, schedule: Q04DX002 (ip), vehicle: saline 104 % of control

O=C(CBr)c1cccnc1
inactive: dose: 6.25 mg/kg/injection, schedule: Q01DX009 (ip), vehicle: saline 98 % of control | dose: 12.5 mg/kg/injection, schedule: Q01DX009 (ip), vehicle: saline 98 % of control
